# Measured values taken from US7585874B2, “Aryl-isoxazol-4-yl-imidazo[1,2-a]pyridine derivatives” (Hoffmann-La Roche Inc., priority 2006, dated 2009).
# Biological target: T1, GABA A receptor α5β3γ2 (Homo sapiens, UniProt P18507+P31644)
# T1 construct: expressed in transfected cells; host or cells: HEK293 (transiently transfected; membranes)
# Assay: [3H]flumazenil competition binding, membranes of HEK293 cells expressing human GABA A α5β3γ2
# Conditions: human α5β3γ2 in HEK293 (transiently transfected); 0.5 nM [3H]flumazenil; 1 hour at 4° C.; means of two determinations; read-out: Ki[nM]hα5
# Protocol: The affinity of compounds at GABA A receptor subtypes was measured by competition for [3H]flumazenil (85 Ci/mmol; Roche) binding to HEK293 cells expressing rat (stably transfected) or human (transiently transfected) receptors of composition α1β3γ2, α2β3γ2, α3β3γ2 and α5β3γ2.
# Cell pellets were suspended in Krebs-tris buffer (4.8 mM KCl, 1.2 mM CaCl2, 1.2 mM MgCl2, 120 mM NaCl, 15 mM Tris; pH 7.5; binding assay buffer), homogenized by polytron for ca. 20 sec on ice and centrifuged for 60 min at 4° C. (50000 g; Sorvall, rotor: SM24=20000 rpm). The cell pellets were resuspended in Krebs-tris buffer and homogenized by polytron for ca. 15 sec on ice. Protein was measured (Bradford method, Bio-Rad) and aliquots of 1 mL were prepared and stored at −80° C.
# Radioligand binding assays were carried out in a volume of […] (96-well plates) which contained […] of cell membranes, [3H]flumazenil at a concentration of 1 nM for α1, α2, α3 subunits and 0.5 nM for α5 subunits and the test compound in the range of […]. Nonspecific binding was defined by 10^−5 M diazepam and typically represented less than 5% of the total binding. Assays were incubated to equilibrium for 1 hour at 4° C. and harvested onto GF/C uni-filters (Packard) by filtration using a Packard harvester and washing with ice-cold wash buffer 50 mM Tris; pH 7.5). After drying, filter-retained radioactivity was detected by liquid scintillation counting. Ki values were calculated using Excel-Fit (Microsoft) and are the means of two determinations.
row,Compound,Ki [nM]
1,"2-(5-Methyl-3-phenyl-isoxazol-4-yl)-imidazo[1,2-a]pyridine-6-carboxylic acid (3-morpholin-4-yl-propyl)-amide [Example 39]",190
2,"Cc1onc(-c2ccccc2)c1-c1cn2cccc(OCc3ccccc3)c2n1 [Example 6, 8-Benzyloxy-2-(5-methyl-3-phenyl-isoxazol-4-yl)-imidazo[1,2-a]pyridine]",23
3,"Cc1ccn2cc(-c3c(-c4ccccc4)noc3C)nc2c1 [Example 8, 7-Methyl-2-(5-methyl-3-phenyl-isoxazol-4-yl)-imidazo[1,2-a]pyridine]",81.7
4,"COC(=O)c1ccn2cc(-c3c(-c4ccccc4)noc3C)nc2c1 [Example 10, 2-(5-Methyl-3-phenyl-isoxazol-4-yl)-imidazo[1,2-a]pyridine-7-carboxylic acid methyl ester]",150
5,"Cc1onc(-c2ccccc2)c1-c1cn2ccc(C(=O)NCC3CC3)cc2n1 [Example 11, 2-(5-Methyl-3-phenyl-isoxazol-4-yl)-imidazo[1,2-a]pyridine-7-carboxylic acid cyclopropylmethyl-amide]",178
6,"C#CCNC(=O)c1ccn2cc(-c3c(-c4ccccc4)noc3C)nc2c1 [Example 12, 2-(5-Methyl-3-phenyl-isoxazol-4-yl)-imidazo[1,2-a]pyridine-7-carboxylic acid prop-2-ynylamide]",72.3
7,"Cc1onc(-c2ccccc2)c1-c1cn2ccc(C(=O)NC3CCC3)cc2n1 [Example 14, 2-(5-Methyl-3-phenyl-isoxazol-4-yl)-imidazo[1,2-a]pyridine-7-carboxylic acid cyclobutylamide]",168
8,"Cc1onc(-c2ccccc2)c1-c1cn2ccc(C(=O)NC3CCCC3)cc2n1 [Example 15, 2-(5-Methyl-3-phenyl-isoxazol-4-yl)-imidazo[1,2-a]pyridine-7-carboxylic acid cyclopentylamide]",200
9,"Cc1onc(-c2ccccc2)c1-c1cn2ccc(C(=O)NCc3cccnc3)cc2n1 [Example 21, 2-(5-Methyl-3-phenyl-isoxazol-4-yl)-imidazo[1,2-a]pyridine-7-carboxylic acid (pyridin-3-ylmethyl)-amide]",97
10,"Cc1onc(-c2ccccc2)c1-c1cn2ccc(C(=O)NCc3ccncc3)cc2n1 [Example 22, 2-(5-Methyl-3-phenyl-isoxazol-4-yl)-imidazo[1,2-a]pyridine-7-carboxylic acid (pyridin-4-ylmethyl)-amide]",199
11,"Cc1onc(-c2ccccc2)c1-c1cn2cc(F)ccc2n1 [Example 25, 6-Fluoro-2-(5-methyl-3-phenyl-isoxazol-4-yl)-imidazo[1,2-a]pyridine]",154
12,"Cc1onc(-c2ccccc2)c1-c1cn2cc(Cl)ccc2n1 [Example 26, 6-Chloro-2-(5-methyl-3-phenyl-isoxazol-4-yl)-imidazo[1,2-a]pyridine]",110
13,"CCOC(=O)c1ccc2nc(-c3c(-c4ccccc4)noc3C)cn2c1 [Example 30, 2-(5-Methyl-3-phenyl-isoxazol-4-yl)-imidazo[1,2-a]pyridine-6-carboxylic acid ethyl ester]",154

# More lines, now with the values ahead:
row,Ki [nM],Compound
1,167,"Cc1onc(-c2ccccc2)c1-c1cn2ccccc2n1 [Example 1, 2-(5-Methyl-3-phenyl-isoxazol-4-yl)-imidazo[1,2-a]pyridine]"
2,232,"Cc1onc(-c2ccccc2)c1-c1cn2cccc(C)c2n1 [Example 2, 8-Methyl-2-(5-methyl-3-phenyl-isoxazol-4-yl)-imidazo[1,2-a]pyridine]"
3,126,"Cc1onc(-c2ccccc2)c1-c1cn2cccc(Cl)c2n1 [Example 3, 8-Chloro-2-(5-methyl-3-phenyl-isoxazol-4-yl)-imidazo[1,2-a]pyridine]"
4,146,"Cc1onc(-c2ccccc2)c1-c1cn2cccc(Br)c2n1 [Example 4, 8-Bromo-2-(5-methyl-3-phenyl-isoxazol-4-yl)-imidazo[1,2-a]pyridine]"
5,20.2,"Cc1onc(-c2ccccc2)c1-c1cn2cccc(O)c2n1 [Example 5, 2-(5-Methyl-3-phenyl-isoxazol-4-yl)-imidazo[1,2-a]pyridin-8-ol]"
6,126,"Cc1onc(-c2ccccc2)c1C(=O)COc1cccn2cc(-c3c(-c4ccccc4)noc3C)nc12 [Example 7, 1-(5-Methyl-3-phenyl-isoxazol-4-yl)-2-[2-(5-methyl-3-phenyl-isoxazol-4-yl)-imidazo[1,2-a]pyridin-8-yloxy]-ethanone]"
7,101,"CCc1ccn2cc(-c3c(-c4ccccc4)noc3C)nc2c1 [Example 9, 7-Ethyl-2-(5-methyl-3-phenyl-isoxazol-4-yl)-imidazo[1,2-a]pyridine]"
8,87.4,"Cc1onc(-c2ccccc2)c1-c1cn2ccc(C(=O)NC3CC3)cc2n1 [Example 13, 2-(5-Methyl-3-phenyl-isoxazol-4-yl)-imidazo[1,2-a]pyridine-7-carboxylic acid cyclopropylamide]"
9,114,"Cc1onc(-c2ccccc2)c1-c1cn2ccc(C(=O)NCCO)cc2n1 [Example 16, 2-(5-Methyl-3-phenyl-isoxazol-4-yl)-imidazo[1,2-a]pyridine-7-carboxylic acid (2-hydroxy-ethyl)-amide]"
10,96,"Cc1onc(-c2ccccc2)c1-c1cn2ccc(C(=O)NC3CCOCC3)cc2n1 [Example 17, 2-(5-Methyl-3-phenyl-isoxazol-4-yl)-imidazo[1,2-a]pyridine-7-carboxylic acid (tetrahydro-pyran-4-yl)-amide]"
11,159,"Cc1onc(-c2ccccc2)c1-c1cn2ccc(C(=O)NCCN3CCOCC3)cc2n1 [Example 18, 2-(5-Methyl-3-phenyl-isoxazol-4-yl)-imidazo[1,2-a]pyridine-7-carboxylic acid (2-morpholin-4-yl-ethyl)-amide]"
12,124,"Cc1onc(-c2ccccc2)c1-c1cn2ccc(C(=O)NCCCN3CCOCC3)cc2n1 [Example 19, 2-(5-Methyl-3-phenyl-isoxazol-4-yl)-imidazo[1,2-a]pyridine-7-carboxylic acid (3-morpholin-4-yl-propyl)-amide]"
13,183,"Cc1onc(-c2ccccc2)c1-c1cn2ccc(C(=O)NCc3ccco3)cc2n1 [Example 23, 2-(5-Methyl-3-phenyl-isoxazol-4-yl)-imidazo[1,2-a]pyridine-7-carboxylic acid (furan-2-ylmethyl)-amide]"
14,33.1,"Cc1ccc2nc(-c3c(-c4ccccc4)noc3C)cn2c1 [Example 24, 6-Methyl-2-(5-methyl-3-phenyl-isoxazol-4-yl)-imidazo[1,2-a]pyridine]"
15,121,"Cc1onc(-c2ccccc2)c1-c1cn2cc(Br)ccc2n1 [Example 27, 6-Bromo-2-(5-methyl-3-phenyl-isoxazol-4-yl)-imidazo[1,2-a]pyridine]"
16,173,"Cc1onc(-c2ccccc2)c1-c1cn2cc(C#N)ccc2n1 [Example 28, 2-(5-Methyl-3-phenyl-isoxazol-4-yl)-imidazo[1,2-a]pyridine-6-carbonitrile]"
17,117,"COC(=O)c1ccc2nc(-c3c(-c4ccccc4)noc3C)cn2c1 [Example 29, 2-(5-Methyl-3-phenyl-isoxazol-4-yl)-imidazo[1,2-a]pyridine-6-carboxylic acid methyl ester]"
18,23.9,"Cc1onc(-c2ccccc2)c1-c1cn2cc(C(=O)NCC3CC3)ccc2n1 [Example 31, 2-(5-Methyl-3-phenyl-isoxazol-4-yl)-imidazo[1,2-a]pyridine-6-carboxylic acid cyclopropylmethyl-amide]"
